Laboratory results reported in ChEMBL document CHEMBL2146447, “Synthesis and antimicrobial activity of amido linked pyrrolyl and pyrazolyl-oxazoles, thiazoles and imidazoles” (2011).

Columns and labels:
Assay type in all cases: functional
Conditions in all cases: read-out: DIZ
Klebsiella pneumoniae [1] = assay: Antibacterial activity against Klebsiella pneumoniae at 100 ug after 24 hrs by agar well diffusion method
Bacillus subtilis [2] = assay: Antibacterial activity against Bacillus subtilis at 50 ug after 24 hrs by agar well diffusion method
Staphylococcus aureus [3] = assay: Antibacterial activity against Staphylococcus aureus at 100 ug after 24 hrs by agar well diffusion method
Pseudomonas aeruginosa [4] = assay: Antibacterial activity against Pseudomonas aeruginosa at 50 ug after 24 hrs by agar well diffusion method
Klebsiella pneumoniae [5] = assay: Antibacterial activity against Klebsiella pneumoniae at 50 ug after 24 hrs by agar well diffusion method
Staphylococcus aureus [6] = assay: Antibacterial activity against Staphylococcus aureus assessed at 50 ug after 24 hrs by agar well diffusion method
Bacillus subtilis [7] = assay: Antibacterial activity against Bacillus subtilis at 100 ug after 24 hrs by agar well diffusion method
Aspergillus niger [8] = assay: Antifungal activity against Aspergillus niger at 100 ug after 48 hrs by agar well diffusion method
Penicillium chrysogenum [9] = assay: Antifungal activity against Penicillium chrysogenum at 50 ug after 48 hrs by agar well diffusion method
Penicillium chrysogenum [10] = assay: Antifungal activity against Penicillium chrysogenum at 100 ug after 48 hrs by agar well diffusion method
Aspergillus niger [11] = assay: Antifungal activity against Aspergillus niger at 50 ug after 48 hrs by agar well diffusion method
Pseudomonas aeruginosa [12] = assay: Antibacterial activity against Pseudomonas aeruginosa at 100 ug after 24 hrs by agar well diffusion method

| SMILES | zone of inhibition at 100 µg/disc (Klebsiella pneumoniae [1]) [mm] | zone of inhibition at 50 µg/disc (Bacillus subtilis [2]) [mm] | zone of inhibition at 100 µg/disc (Staphylococcus aureus [3]) [mm] | zone of inhibition at 50 µg/disc (Pseudomonas aeruginosa [4]) [mm] | zone of inhibition at 50 µg/disc (Klebsiella pneumoniae [5]) [mm] | zone of inhibition at 50 µg/disc (Staphylococcus aureus [6]) [mm] | zone of inhibition at 100 µg/disc (Bacillus subtilis [7]) [mm] | zone of inhibition at 100 µg/disc (Aspergillus niger [8]) [mm] | zone of inhibition at 50 µg/disc (Penicillium chrysogenum [9]) [mm] | zone of inhibition at 100 µg/disc (Penicillium chrysogenum [10]) [mm] | zone of inhibition at 50 µg/disc (Aspergillus niger [11]) [mm] | zone of inhibition at 100 µg/disc (Pseudomonas aeruginosa [12]) [mm] |
| --- | --- | --- | --- | --- | --- | --- | --- | --- | --- | --- | --- | --- |
| Cc1ccc(-c2c[nH]c(NC(=O)c3c[nH]cc3-c3ccccc3)n2)cc1 | 21 | 17 | 16 | 13 | 19 | 14 | 19 | 17 | 16 | 19 | 14 | 14 |
| O=C(/C=C/c1ccccc1)Nc1nc(-c2ccccc2)c[nH]1 | 26 | 22 | 21 | 16 | 24 | 19 | 24 | 22 | 21 | 24 | 19 | 17 |
| O=C(Nc1nc(-c2ccccc2)c[nH]1)c1c[nH]cc1-c1ccccc1 | 22 | 18 | 17 | 14 | 20 | 15 | 20 | 18 | 17 | 20 | 16 | 15 |
| O=C(Nc1nc(-c2ccccc2)c[nH]1)C1=NNCC1c1ccccc1 (stereo not drawn) | 19 | 15 | 14 | 12 | 17 | 12 | 17 | 15 | 14 | 17 | 13 | 14 |
| O=C(Nc1nc(-c2ccc(Cl)cc2)c[nH]1)C1=NNCC1c1ccccc1 (stereo not drawn) | 30 | 24 | 27 | 21 | 28 | 25 | 27 | 30 | 29 | 32 | 28 | 24 |
| O=C(Nc1nc(-c2ccccc2)cs1)c1n[nH]cc1-c1ccccc1 | 16 | 12 | 12 | 9 | 14 | 9 | 14 | 12 | 11 | 14 | 9 | 11 |
| Cc1ccc(-c2csc(NC(=O)C3=NNCC3c3ccccc3)n2)cc1 (stereo not drawn) | 20 | 16 | 15 | 12 | 18 | 13 | 18 | 16 | 15 | 18 | 13 | 13 |
| O=C(Nc1nc(-c2ccccc2)co1)c1n[nH]cc1-c1ccccc1 | 17 | 13 | 12 | 10 | 15 | 10 | 15 | 13 | 12 | 15 | 10 | 12 |
| Cc1ccc(-c2c[nH]c(NC(=O)C3=NNCC3c3ccccc3)n2)cc1 (stereo not drawn) | 18 | 14 | 13 | 11 | 16 | 11 | 16 | 14 | 13 | 16 | 11 | 13 |
